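How tested: cells in 96-well plates exposed to compound for 48 hours at five concentrations. The concentration for full growth arrest is given as TGI.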
How the values were obtained:
Experiment in all cases: inhibition of tumour cell growth, NCI panel, 48 h
SW-620 colon = test system: SW-620 colon
EKVX NSCLC = test system: EKVX NSCLC
OVCAR-4 ovarian = test system: OVCAR-4 ovarian
RXF 393 renal = test system: RXF 393 renal
K-562 leukemia = test system: K-562 leukemia
UACC-62 melanoma = test system: UACC-62 melanoma
ACHN renal = test system: ACHN renal
RPMI-8226 leukemia = test system: RPMI-8226 leukemia
MDA-MB-435 = test system: MDA-MB-435
NCI/ADR-RES ovarian = test system: NCI/ADR-RES ovarian

Structure (SMILES) | TGI (SW-620 colon) [µM] | TGI (EKVX NSCLC) [µM] | TGI (OVCAR-4 ovarian) [µM] | TGI (RXF 393 renal) [µM] | TGI (K-562 leukemia) [µM] | TGI (UACC-62 melanoma) [µM] | TGI (ACHN renal) [µM] | TGI (RPMI-8226 leukemia) [µM] | TGI (MDA-MB-435) [µM] | TGI (NCI/ADR-RES ovarian) [µM]
COc1ccc(N[C@H](CS(=O)c2ccc(C)cc2)c2ccc(F)cc2)cc1 (stereo partly specified) | > 100 | > 100 | > 100 | > 100 | > 100 | > 100 | > 100 | > 100 | > 100 | > 100
Brc1ccc(N=NN2CCCCC2)cc1 | > 100 | > 100 | > 100 | > 100 | > 100 | > 100 | > 100 | 30.9 | > 100 | > 100
CC(C)(CN)CN | > 100 | > 100 | > 100 | > 100 | > 100 | > 100 | > 100 | > 100 | > 100 | > 100
CC(=O)c1ccc(N=Nc2ccc3nonc3c2N)cc1 | > 100 | > 100 | > 100 | > 100 | > 100 | > 100 | > 100 | > 100 | > 100 | > 100
CSc1c(C(=O)Nc2ccccc2)c(N)nn1-c1ccccc1 | > 100 | > 100 | > 100 | > 100 | > 100 | > 100 |  | > 100 | > 100 | > 100
Cc1ccc(S(=O)(=O)N/C(=C\C=C\c2ccccc2)C(=O)C(C)(C)C)cc1 | > 100 | > 100 | > 100 | > 100 | > 100 |  | > 100 | 75.9 | > 100 | > 100
c1ccc(CNc2c3c(nc4ccccc24)CCC3)cc1 | 28.2 | 42.9 | 58.7 | 30.4 | 26.2 | 28 | 40.9 | 29.9 | 30.6 | 44.2
Cc1ccc(F)cc1NC(=O)O/N=C(\Cl)C(C)C | 3.18 | 15.5 | 33.1 | 9.51 | 5.72 | 39.7 | 4.41 | 4 | 32.2 | 27.2
CCOC(C[Se]CC(OCC)OCC)OCC | > 100 | > 100 | > 100 | 85.8 | > 100 | > 100 | > 100 | > 100 | > 100 | > 100
CCCCOC(=O)C(=O)C(CCC(=O)c1ccc(C)cc1)C(=O)C=C(C)C (stereo unspecified) | > 100 | > 100 | > 100 | > 100 | > 100 | > 100 | > 100 | > 100 | > 100 | > 100
COc1ccc2nc3cc(Cl)ccc3c(NCCCCCC(=O)NC(COc3cnc4c(ccc5cccnc54)c3)COc3cnc4c(ccc5cccnc54)c3)c2c1 | 24.4 | > 100 | > 100 | 30.2 | 13.6 | > 100 | > 100 | 20.2 | > 100 | > 100
COc1cc2c(cc1C[N+](C)(C)CSc1ccccc1)-c1ccccc1CC2 | > 41.3 | 23.7 | 18.9 | 23.1 | 6.75 | 7.79 | 28.6 | 17.2 | 12.5 | > 100
O=C(Nc1sccc1S(=O)(=O)c1ccccc1)c1cccnc1 | > 100 | > 100 | > 100 | > 100 | > 100 | > 100 | > 100 | > 100 | 8.36 | > 52.7
Cn1c(=O)c2c(nc(NCCCCl)n2CC(=O)O)n(C)c1=O | > 100 | > 100 | > 100 | > 100 | > 100 | > 100 | > 100 | > 100 | > 100 | > 100
COC(=O)/C=C/c1ccccc1N=[S@](C)(=O)c1ccc(C)cc1 | > 100 | > 100 | > 100 | 37.1 | > 100 | > 100 | > 100 | 61.3 | 16.2 | 72.5
c1ccc2c(-c3cnc(-c4c[nH]c5ccccc45)cn3)c[nH]c2c1 | 47.9 | > 100 | > 100 | > 100 | > 100 | > 100 | > 100 | > 100 | 78.5 | > 100
COc1ccc2c(c1)OC(c1cccnc1)C(c1ccccc1)C2=O (stereo unspecified) | > 100 | > 100 | > 100 | > 100 | > 100 | > 100 | > 100 | > 100 | > 100 | > 100
COc1cc(-c2nc3cc(F)ccc3s2)ccc1O | > 100 | 53.5 | > 100 | > 100 | > 100 | > 100 | > 100 | > 100 | > 100 | > 100
COc1ccc2c(c1)O[C@@H]1C(O)Oc3cc(OC)c(OC)cc3[C@]1(O)C2=O (stereo partly specified) | > 100 | > 100 | > 100 | > 100 | > 100 | > 100 | > 100 | > 100 | > 100 | > 100
CC(C)(C)OC(=O)n1cc(C2CNC(=O)C23CCC(=O)N3Cc2ccccc2)c2ccccc21 (stereo unspecified) | > 100 | 54.6 | 36.2 | 44.8 | > 100 | 38.7 |  | 40.8 | 42.3 | > 100
COc1cccc(N2C(=O)C3c4[nH]c5ccccc5c4C4c5ccccc5CCC4C3C2=O)c1 (stereo unspecified) | > 10 | > 10 | > 7.12 | > 10 | > 10 | > 10 | > 10 | > 10 | > 10 | > 10
COC(=O)c1cc(C)ccc1CC(Cc1cccc(C)c1)C(=O)OC (stereo unspecified) | > 100 | > 100 | > 100 | 73.6 | > 100 |  | > 100 | > 100 | > 100 | > 100
